Laboratory results reported in publication PMC6968775, “Assessment of contribution of BCRP to intestinal absorption of various drugs using portal‐systemic blood concentration difference model in mice” (Pharmacology Research & Perspectives, 2020).

Key:
[1] = Pharmacokinetics after iv and oral administration, P‐S difference method, wild‐type mice; format: in vivo
Description: (§1) Male Mdr1a/1b(−/−) and Bcrp(−/−) mice, and WT mice of the same genetic background (FVB) were obtained from Taconic Farms (Germantown, NY, USA). […] Food and water were available ad libitum. All experiments were carried out in accordance with the principles and procedures outlined in the National Institutes of Health Guide for the Care and Use of Laboratory.
(§2) All the mice were fasted overnight with free access to tap water. In the intravenous administration studies, model compounds were administered via the tail vein at doses of 1 mg/kg (n = 3). Following administration, blood samples were collected from the abdominal vein of the anesthetized mice at 0.083, 0.17, 0.5, 1, 2, 4, and 8 hours. […] Following administration, blood samples were taken from the portal and abdominal veins of the anesthetized mice at 0.083, 0.17, 0.5, 1, 2, 4, and 8 hours. The plasma samples were separated by centrifugation at 14 000g for 10 minutes at 4°C and stored at −30°C until analysis.
(§3) After organic layer was evaporated at 60°C, the resultant residues were dissolved in a mobile phase. For the determination of topotecan and sulfasalazine, plasma samples were mixed with acetonitrile, centrifuged at 750 g for 10 minutes at 4°C, and the supernatants were collected. After the evaporation of the supernatants, the residues were dissolved in a mobile phase, and acidified with phosphoric acid for topotecan. All drugs were analyzed by HPLC system (Shimadzu LC‐10AS pump, Shimadzu SIL‐10A autosampler) equipped with a reverse‐phase column (COSMOSIL 5C18‐AR‐II, 3.5‐μm […], 4.6 × 150 mm).
(§4) Elimination rate constant (k e) was determined by the least squares regression analysis of plasma concentration vs time curve. Elimination half‐life (t 1/2) was calculated using Eq.1:(1) t1/2=ln2/ke
(§5) Area under plasma concentration‐time curve (AUC) and area under the first moment curve (AUMC) from time 0 to infinity were calculated by trapezoidal rule.
(§6) Absorption rate constant (k a) after oral administration was calculated by the nonlinear least squares fitting with program MULTI.12
(§7) BA was calculated by Eq.5:(7) BA=AUCoral/AUCiv×Doseiv/Doseoral×100 where AUCoral is AUC after oral administration. Doseiv and Doseoral are administered dose in the intravenous and oral administration study, respectively.
(§8) Hepatic availability (F h) was calculated by Eq.6:(8) Fh=F/Fa×Fg

[2] = Pharmacokinetics after iv and oral administration, P‐S difference method, Bcrp(−/−) mice; format: in vivo
Description: as §1, §2, §3, §4, §5, §6, §7, §8

[3] = Pharmacokinetics after iv and oral administration, P‐S difference method, Mdr1a/1b(−/−) mice; format: in vivo
Description: as §1, §2, §3, §4, §5, §6, §7, §8

[4] = Blood/plasma concentration ratio (R b) in fresh whole blood; format: in vitro ADME, FVB mice; settings: fresh whole blood, FVB mouse whole blood, 37°C
Description: Similarly, the model compounds were added to plasma, and reference blood samples were obtained according to the same procedure. These concentrations of drugs in each sample were analyzed using HPLC (C B and C P, respectively). R b value was calculated by dividing C B by C P.

P‐gp [5] = settings: in vivo (mice); calculated from F a F g in WT, Bcrp(−/−) and Mdr1a/1b(−/−) mice (Eq. 12)
P‐gp [6] = settings: Caco‐2 permeability study; unpublished data; ref Fujita et al, manuscript in preparation; cited from earlier work
[7] = human; cited from earlier work
[8] = wild‐type mice, p.o. (ciprofloxacin 1, nitrofurantoin 2, topotecan 1, sulfasalazine 5 mg/kg)
[9] = wild‐type mice, p.o. (ciprofloxacin 1, nitrofurantoin 2, topotecan 1, sulfasalazine 5 mg/kg), systemic (sys) plasma
[10] = Bcrp(−/−) mice, p.o. (ciprofloxacin 1, nitrofurantoin 2, topotecan 1, sulfasalazine 5 mg/kg)
[11] = Bcrp(−/−) mice, p.o. (ciprofloxacin 1, nitrofurantoin 2, topotecan 1, sulfasalazine 5 mg/kg), systemic (sys) plasma
[12] = Mdr1a/1b(−/−) mice, p.o. (ciprofloxacin 1, nitrofurantoin 2, topotecan 1, sulfasalazine 5 mg/kg)
[13] = male, Mdr1a/1b(−/−) (FVB background), mouse, systemic plasma (abdominal vein), po

Question: For `O=C(O)c1cc(/N=N/c2ccc(S(=O)(=O)Nc3ccccn3)cc2)ccc1O` [sulfasalazine, Sulfasalazine], which “k a, wt” value ([1]; Table 5 summary, WT mice, oral administration) is on record?
Answer: 1.40

Question: And the C0 ([1]; male, FVB (wild-type), mouse, plasma (systemic, abdominal vein), WT mice, intravenous injection 1 mg/kg, read-out: extrapolated plasma concentration at zero time (C 0))?
Answer: 11.7 µM

Question: What about the clearance ([1]; male, FVB (wild-type), mouse, plasma (systemic, abdominal vein), wild‐type mice, iv 1 mg/kg, read-out: CL tot (converted)) of the same compound?
Answer: 11 mL/min/kg

Question: What about the Vd ([1]; male, FVB (wild-type), mouse, plasma (systemic, abdominal vein), wild‐type mice, iv 1 mg/kg, read-out: Vdss) of the same compound?
Answer: 0.59 L/kg

Question: What about the half-life ([1]; male, FVB (wild-type), mouse, plasma, iv, 1 mg/kg, wild‐type mice, iv 1 mg/kg) of the same compound?
Answer: 1.95 h

Question: And the AUC(0-inf) ([1]; male, FVB (wild-type), mouse, plasma, iv, 1 mg/kg, wild‐type mice, iv 1 mg/kg, read-out: AUC 0→∞)?
Answer: 3.82 µM·h

Question: And the Tmax ([1]; male, FVB (wild-type), mouse, portal vein plasma, po)?
Answer: 0.17 h

Question: And the AUC(0-inf) ([1]; male, FVB (wild-type), mouse, portal vein plasma, po, wild‐type mice, p.o. (ciprofloxacin 1, nitrofurantoin 2, topotecan 1, sulfasalazine 5 mg/kg), portal vein (pv) plasma, read-out: AUC 0→∞ (AUCpv))?
Answer: 2.2 µM·h

Question: What about the Tmax ([1]; male, FVB (wild-type), mouse, systemic plasma (abdominal vein), po) of the same compound?
Answer: 0.5 h

Question: And the half-life ([1]; male, FVB (wild-type), mouse, systemic plasma (abdominal vein), po, wild‐type mice, p.o. (ciprofloxacin 1, nitrofurantoin 2, topotecan 1, sulfasalazine 5 mg/kg), systemic (sys) plasma)?
Answer: 1 h

Question: What about the AUC(0-inf) ([1]; male, FVB (wild-type), mouse, systemic plasma (abdominal vein), po, wild‐type mice, p.o. (ciprofloxacin 1, nitrofurantoin 2, topotecan 1, sulfasalazine 5 mg/kg), systemic (sys) plasma, read-out: AUC 0→∞ (AUCsys)) of the same compound?
Answer: 1.94 µM·h

Question: And the F h [1, 8]?
Answer: 60.1%

Question: What about the k a [1, 8] of the same compound?
Answer: 1.40 h⁻¹

Question: And the BA ([1]; wild‐type mice, p.o. (ciprofloxacin 1, nitrofurantoin 2, topotecan 1, sulfasalazine 5 mg/kg) vs iv 1 mg/kg)?
Answer: 10.2%

Question: And the “F a F g” value ([1]; wild‐type mice, p.o. (ciprofloxacin 1, nitrofurantoin 2, topotecan 1, sulfasalazine 5 mg/kg), P‐S difference method)?
Answer: 16.9%

Question: And the “AUC 0→∞ (AUCpv)” value ([1]; wild‐type mice, p.o. (ciprofloxacin 1, nitrofurantoin 2, topotecan 1, sulfasalazine 5 mg/kg), portal vein (pv) plasma)?
Answer: 2.2 µM·h

Question: And the “AUC 0→∞ (AUCsys)” value [1, 9]?
Answer: 1.94 µM·h

Question: And the “t 1/2” value [1, 9]?
Answer: 1.11 h

Question: What about the F h [2, 10] of the same compound?
Answer: 73.2%

Question: And the k a [2, 10]?
Answer: 0.49 h⁻¹

Question: And the BA ([2]; Bcrp(−/−) mice, p.o. (ciprofloxacin 1, nitrofurantoin 2, topotecan 1, sulfasalazine 5 mg/kg) vs iv 1 mg/kg)?
Answer: 95.2%

Question: What about the “AUC 0→∞ (AUCpv)” value ([2]; Bcrp(−/−) mice, p.o. (ciprofloxacin 1, nitrofurantoin 2, topotecan 1, sulfasalazine 5 mg/kg), portal vein (pv) plasma) of the same compound?
Answer: 290 000 nmol/L·h

Question: What about the “AUC 0→∞ (AUCsys)” value [2, 11] of the same compound?
Answer: 288 000 nmol/L·h

Question: And the “t 1/2” value [2, 11]?
Answer: 7.07 h

Question: And the “k a, bcrp” value ([2]; Table 5 summary, Bcrp(−/−) mice, oral administration)?
Answer: 0.49

Question: What about the “(F a F g)bcrp” value ([2]; as fraction, Bcrp(−/−) mice, oral administration) of the same compound?
Answer: 1.30

Question: What about the half-life ([2]; male, Bcrp(−/−) (FVB background), mouse, plasma, iv, 1 mg/kg, Bcrp(−/−) mice, iv 1 mg/kg) of the same compound?
Answer: 3.57 h

Question: What about the Tmax ([2]; male, Bcrp(−/−) (FVB background), mouse, portal vein plasma, po) of the same compound?
Answer: 2 h

Question: What about the Tmax ([2]; male, Bcrp(−/−) (FVB background), mouse, systemic plasma (abdominal vein), po) of the same compound?
Answer: 2 h

Question: What about the AUC(0-inf) ([2]; male, FVB Bcrp(−/−), mouse, plasma (systemic, abdominal vein), iv, 1 mg/kg, Bcrp(−/−) mice, iv 1 mg/kg, read-out: AUC 0→∞) of the same compound?
Answer: 60.5 µM·h

Question: And the C0 ([2]; male, FVB Bcrp(−/−), mouse, plasma (systemic, abdominal vein), Bcrp(−/−) mice, intravenous injection 1 mg/kg, read-out: extrapolated plasma concentration at zero time (C 0))?
Answer: 18.1 µM

Question: And the clearance ([2]; male, FVB Bcrp(−/−), mouse, plasma (systemic, abdominal vein), Bcrp(−/−) mice, iv 1 mg/kg, read-out: CL tot (converted))?
Answer: 0.667 mL/min/kg

Question: And the Vd ([2]; male, FVB Bcrp(−/−), mouse, plasma (systemic, abdominal vein), Bcrp(−/−) mice, iv 1 mg/kg, read-out: Vdss)?
Answer: 0.19 L/kg

Question: What about the AUC(0-inf) ([2]; male, FVB Bcrp(−/−), mouse, portal vein plasma, po, Bcrp(−/−) mice, p.o. (ciprofloxacin 1, nitrofurantoin 2, topotecan 1, sulfasalazine 5 mg/kg), portal vein (pv) plasma, read-out: AUC 0→∞ (AUCpv)) of the same compound?
Answer: 290 µM·h

Question: And the half-life ([2]; male, FVB Bcrp(−/−), mouse, systemic plasma (abdominal vein), po, Bcrp(−/−) mice, p.o. (ciprofloxacin 1, nitrofurantoin 2, topotecan 1, sulfasalazine 5 mg/kg), systemic (sys) plasma)?
Answer: 7 h

Question: What about the AUC(0-inf) ([2]; male, FVB Bcrp(−/−), mouse, systemic plasma (abdominal vein), po, Bcrp(−/−) mice, p.o. (ciprofloxacin 1, nitrofurantoin 2, topotecan 1, sulfasalazine 5 mg/kg), systemic (sys) plasma, read-out: AUC 0→∞ (AUCsys)) of the same compound?
Answer: 288 µM·h

Question: And the “AUC pv and AUC sys after oral administration, Bcrp(−/−) mice vs WT mice” value ([2]; oral administration)?
Answer: more than 130 fold

Question: And the F h [3, 12]?
Answer: 55.6%

Question: And the k a [3, 12]?
Answer: 0.93 h⁻¹

Question: And the BA ([3]; Mdr1a/1b(−/−) mice, p.o. (ciprofloxacin 1, nitrofurantoin 2, topotecan 1, sulfasalazine 5 mg/kg) vs iv 1 mg/kg)?
Answer: 11.5%

Question: What about the “F a F g” value ([3]; Mdr1a/1b(−/−) mice, p.o. (ciprofloxacin 1, nitrofurantoin 2, topotecan 1, sulfasalazine 5 mg/kg), P‐S difference method) of the same compound?
Answer: 30%

Question: What about the “k a, P‐gp” value ([3]; Table 5 summary, Mdr1a/1b(−/−) mice, oral administration) of the same compound?
Answer: 0.93

Question: And the “(F a F g)P‐gp” value ([3]; as fraction, Mdr1a/1b(−/−) mice, oral administration)?
Answer: 0.30

Question: What about the clearance ([3]; male, FVB Mdr1a/1b(−/−), mouse, plasma (systemic, abdominal vein), Mdr1a/1b(−/−) mice, iv 1 mg/kg, read-out: CL tot (converted)) of the same compound?
Answer: 9.83 mL/min/kg

Question: And the Vd ([3]; male, FVB Mdr1a/1b(−/−), mouse, plasma (systemic, abdominal vein), Mdr1a/1b(−/−) mice, iv 1 mg/kg, read-out: Vdss)?
Answer: 0.45 L/kg

Question: And the half-life ([3]; male, Mdr1a/1b(−/−) (FVB background), mouse, plasma, Mdr1a/1b(−/−) mice, iv 1 mg/kg)?
Answer: 1.63 h

Question: What about the AUC(0-inf) ([3]; male, Mdr1a/1b(−/−) (FVB background), mouse, plasma, Mdr1a/1b(−/−) mice, iv 1 mg/kg, read-out: AUC 0→∞) of the same compound?
Answer: 4.28 µM·h

Question: And the Tmax ([3]; male, Mdr1a/1b(−/−) (FVB background), mouse, portal vein plasma, po)?
Answer: 0.17 h

Question: What about the Tmax [3, 13] of the same compound?
Answer: 0.5 h

Question: What about the half-life [3, 13] of the same compound?
Answer: 1.11 h

Question: And the blood plasma ratio at 15 min, 1 µg/mL [4]?
Answer: 1.28 ± 0.03

Question: What about the “R P‐gp (rate of P‐gp contribution)” value (P‐gp [5]) of the same compound?
Answer: 0.09

Question: What about the “AQp‐gp in vitro (Caco‐2)” value (P‐gp [6]) of the same compound?
Answer: 0.05

Question: And the “AUC after oral administration, patients heterozygous variant for the BCRP SNP vs normal BCRP” value [7]?
Answer: approximately 2 fold

Question: And the “human BA” value [7]?
Answer: < 15%

Question: What about the “human F a F g” value [7] of the same compound?
Answer: 12%
